The results in this text go back to patent US20250081967A1, “PESTICIDALLY ACTIVE HETEROCYCLIC DERIVATIVES WITH SULFOXIMINE CONTAINING SUBSTITUENTS” (SYNGENTA CROP PROTECTION AG, priority 2021, published 2025).

Structures are written as SMILES.

Holding throughout (type): in vivo
For one series, the system named is Bemisia tabaci. Description: Activity against Bemisia tabaci (cotton white fly), cotton leaf discs. As to conditions: foliar; for mortality at 200 ppm: 144 h, application rate 200 ppm, adult white flies, 6 days after incubation. The protocol:
Example B6: Activity Against Bemisia tabaci (Cotton White Fly)
Cotton leaf discs were placed on agar in 24-well microtiter plates and sprayed with aqueous test solutions prepared from 10′000 ppm DMSO stock solutions. After drying the leaf discs were infested with adult white flies. The samples were checked for mortality 6 days after incubation.

The next series relates to Euschistus heros. Nature of the series: Activity against Euschistus heros (neotropical brown stink bug), soybean leaf. As to conditions: 120 h, application rate 200 ppm, N-2 nymphs, 5 days after infestation, read-out: effect in at least one of the two categories (mortality or growth inhibition). The procedure:
Example B7: Activity Against Euschistus heros (Neotropical Brown Stink Bug)
Soybean leaf on agar in 24-well microtiter plates were sprayed with aqueous test solutions prepared from 10′000 ppm DMSO stock solutions. After drying the leaf were infested with N-2 nymphs. The samples were assessed for mortality and growth inhibition in comparison to untreated samples 5 days after infestation.

In series [1] the test system is Myzus persicae. Nature of the series: Activity against Myzus persicae (green peach aphid), systemic activity, pea seedlings. The conditions noted are these: for mortality at 24 ppm: Myzus persicae, 144 h, test rate 24 ppm, systemic, 6 days after placing seedlings in test solutions. The procedure: Example B5: Activity Against Myzus persicae (Green Peach Aphid) Systemic Activity
Roots of pea seedlings infested with an aphid population of mixed ages were placed directly in the aqueous test solutions prepared from 10′000 DMSO stock solutions. The samples were assessed for mortality 6 days after placing seedlings in test solutions.

The test system of the next series is Diabrotica balteata. Nature of the series: Activity against Diabrotica balteata (corn root worm), maize sprouts. The conditions noted are these: for percent effect (mortality or growth inhibition) at 200 ppm: 96 h, application rate 200 ppm, L2 larvae, 4 days after infestation, read-out: effect in at least one of the two categories (mortality or growth inhibition). The procedure:
Example B3: Activity Against Diabrotica Balteata (Corn Root Worm)
Maize sprouts placed onto an agar layer in 24-well microtiter plates were treated with aqueous test solutions prepared from 10′000 ppm DMSO stock solutions by spraying. After drying, the plates were infested with L2 larvae (6 to 10 per well). The samples were assessed for mortality and growth inhibition in comparison to untreated samples 4 days after infestation.

Series [2] has as its system Myzus persicae. Description: Activity against Myzus persicae (green peach aphid), feeding/contact activity, sunflower leaf discs. As to conditions: Myzus persicae, foliar; for mortality at 200 ppm: 144 h, application rate 200 ppm, feeding/contact, 6 days after infestation. The procedure:
Example B4: Activity Against Myzus persicae (Green Peach Aphid) Feeding/Contact Activity
Sunflower leaf discs were placed on agar in a 24-well microtiter plate and sprayed with aqueous test solutions prepared from 10′000 ppm DMSO stock solutions. After drying, the leaf discs were infested with an aphid population of mixed ages. The samples were assessed for mortality 6 days after infestation.

The next series concerns Spodoptera littoralis. Nature of the series: Activity against Spodoptera littoralis (Egyptian cotton leaf worm), cotton leaf discs. As to conditions: foliar, 72 h, application rate 200 ppm, L1 larvae, 3 days after infestation, read-out: control (mortality, anti-feeding effect or growth inhibition). The protocol:
Example B1: Activity Against Spodoptera littoralis (Egyptian Cotton Leaf Worm)
Cotton leaf discs were placed onto agar in 24-well microtiter plates and sprayed with aqueous test solutions prepared from 10′000 ppm DMSO stock solutions. After drying the leaf discs were infested with five L1 larvae. The samples were assessed for mortality, anti-feeding effect, and growth inhibition in comparison to untreated samples 3 days after infestation. Control of Spodoptera littoralis by a test sample is given when at least one of the categories mortality, anti-feedant effect, and growth inhibition is higher than the untreated sample.

In series [3] the test system is Plutella xylostella. Description: Activity against Plutella xylostella (diamond back moth), artificial diet, L2 larvae. The conditions noted are these: 120 h, application rate 200 ppm, 5 days after infestation, read-out: effect in at least one of the two categories (mortality or growth inhibition). The protocol: Example B2: Activity Against Plutella xylostella (Diamond Back Moth)
24-well microtiter plates with artificial diet were treated with aqueous test solutions prepared from 10′000 ppm DMSO stock solutions by pipetting. After drying, the plates were infested with L2 larvae (10 to 15 per well). The samples were assessed for mortality and growth inhibition in comparison to untreated samples 5 days after infestation.

Series [4] concerns Plutella xylostella. Description: Activity against Plutella xylostella (diamond back moth), artificial diet, eggs. The conditions noted are these: 192 h, application rate 200 ppm, 8 days after infestation, read-out: effect in at least one of the two categories (mortality or growth inhibition). The protocol:
Example B9: Activity Against Plutella xylostella (Diamond Back Moth)
24-well microtiter plates with artificial diet were treated with aqueous test solutions prepared from 10′000 ppm DMSO stock solutions by pipetting. After drying, Plutella eggs were pipetted through a plastic stencil onto a gel blotting paper and the plate was closed with it. The samples were assessed for mortality and growth inhibition in comparison to untreated samples 8 days after infestation.

What is called mortality is the percentage killed. As to `CCS(=N)(=O)c1cc(OC(C)(C)C#N)cnc1-c1nc2cc(C(F)(F)F)n(C3CC3)c(=O)c2n1C` (single isomer, unassigned) [Compound P1-A, 2-[[6-[5-cyclopropyl-3-methyl-4-oxo-6-(trifluoromethyl)imidazo[4,5-c]pyridin-2-yl]-5-(ethylsulfonimidoyl)-3-pyridyl]oxy]-2-methyl-propanenitrile], the mortality at 200 ppm with Bemisia tabaci and with Myzus persicae [2] was at least 80% each time. Moreover, the percent effect (mortality or growth inhibition) at 200 ppm in the series with Euschistus heros and with Diabrotica balteata was at least 80% throughout. For the same compound, in the series on Myzus persicae [1], the mortality at 24 ppm is at least 80%. Also, the mortality at 50 ppm in the series with Myzus persicae [2] (Myzus persicae (contact), concentration 50 ppm) stood at 100%. In addition, in the series on Spodoptera littoralis, the percent control (mortality, anti-feedant effect or growth inhibition) at 200 ppm was at least 80%.

With `CCS(=N)(=O)c1cc(C2(C#N)CC2)cnc1-c1nc2cc(C(F)(F)F)nnc2n1C` (racemic) [Compound P2, 1-[5-(ethylsulfonimidoyl)-6-[7-methyl-3-(trifluoromethyl)imidazo[4,5-c]pyridazin-6-yl]-3-pyridyl]cyclopropanecarbonitrile], the mortality at 200 ppm in the series with Bemisia tabaci and with Myzus persicae [2] was at least 80% in each case. Moreover, the percent effect (mortality or growth inhibition) at 200 ppm in the series on Euschistus heros and in the series on Diabrotica balteata was at least 80% throughout. In the series on Myzus persicae [1], this compound returned a mortality at 24 ppm of at least 80%.

For `CCS(=N)(=O)c1cc(C2(C#N)CC2)cnc1-c1nc2cc(C(F)(F)F)n(OC)c(=O)c2n1C` (single isomer, unassigned) [Compound P8-A, 1-[5-(ethylsulfonimidoyl)-6-[5-methoxy-3-methyl-4-oxo-6-(trifluoromethyl)imidazo[4,5-c]pyridin-2-yl]-3-pyridyl]cyclopropanecarbonitrile], the mortality at 200 ppm with Bemisia tabaci and in the series on Myzus persicae [2] was at least 80% each time. Besides, the percent effect (mortality or growth inhibition) at 200 ppm with Euschistus heros and in the series on Diabrotica balteata was at least 80% in each case. In the series on Myzus persicae [1], this compound returned a mortality at 24 ppm of at least 80%. Besides, the percent control (mortality, anti-feedant effect or growth inhibition) at 200 ppm in the series on Spodoptera littoralis was at least 80%.

With `CCS(=N)(=O)c1cc(C2(C#N)CC2)cnc1-c1nc2cc(C(F)(F)F)cnc2n1C` (racemic) [Compound P16, 1-[5-(ethylsulfonimidoyl)-6-[3-methyl-6-(trifluoromethyl)imidazo[4,5-b]pyridin-2-yl]-3-pyridyl]cyclopropanecarbonitrile], the mortality at 200 ppm with Bemisia tabaci and with Myzus persicae [2] was at least 80% throughout. In the series on Myzus persicae [1], this compound had a mortality at 24 ppm of at least 80%. Moreover, the percent effect (mortality or growth inhibition) at 200 ppm with Plutella xylostella [3] was at least 80%.

`CCS(=N)(=O)c1cc(C2(C#N)CC2)ccc1-c1nc2cc(C(F)(F)F)ncc2n1C` (single isomer, unassigned) [Compound P18-B, 1-[3-(ethylsulfonimidoyl)-4-[3-methyl-6-(trifluoromethyl)imidazo[4,5-c]pyridin-2-yl]phenyl]cyclopropanecarbonitrile] had a mortality at 12.5 ppm with Bemisia tabaci (concentration 12.5 ppm) of 80%. The percent effect (mortality or growth inhibition) at 200 ppm with Euschistus heros is at least 80%. The mortality at 50 ppm in the series on Diabrotica balteata (concentration 50 ppm) was determined as 100%.

Take `CCS(=N)(=O)c1cc(OC(C)(C)C#N)c(C)nc1-c1nc2cc(C(F)(F)F)ncc2n1C` (racemic) [Compound P17, 2-[[5-(ethylsulfonimidoyl)-2-methyl-6-[3-methyl-6-(trifluoromethyl)imidazo[4,5-c]pyridin-2-yl]-3-pyridyl]oxy]-2-methyl-propanenitrile]: the mortality at 200 ppm in the series with Bemisia tabaci and with Myzus persicae [2] was at least 80% throughout. For the same compound, the mortality at 24 ppm with Myzus persicae [1] was at least 80%. Further, the percent effect (mortality or growth inhibition) at 200 ppm in the series with Plutella xylostella [3] is at least 80%. Also, the percent control (mortality, anti-feedant effect or growth inhibition) at 200 ppm in the series with Spodoptera littoralis was at least 80%.

For the compound `CCS(=N)(=O)c1cc(OC(C)(C)C#N)c(C)nc1-c1nc2cc(C(F)(F)F)ncc2n1C` (single isomer, unassigned) [Compound P17-B, 2-[[5-(ethylsulfonimidoyl)-2-methyl-6-[3-methyl-6-(trifluoromethyl)imidazo[4,5-c]pyridin-2-yl]-3-pyridyl]oxy]-2-methyl-propanenitrile], the percent effect (mortality or growth inhibition) at 200 ppm in the series on Euschistus heros is at least 80%. In the series with Spodoptera littoralis, the percent control (mortality, anti-feedant effect or growth inhibition) at 200 ppm is at least 80%.

Take `CCS(=N)(=O)c1cc(C2(C#N)CC2)ccc1-c1nc2cc(C(F)(F)F)ncc2n1C` (racemic) [Compound P18, 1-[3-(ethylsulfonimidoyl)-4-[3-methyl-6-(trifluoromethyl)imidazo[4,5-c]pyridin-2-yl]phenyl]cyclopropanecarbonitrile]: the mortality at 200 ppm in the series with Bemisia tabaci and with Myzus persicae [2] was at least 80% throughout. The percent effect (mortality or growth inhibition) at 200 ppm with Euschistus heros and in the series with Diabrotica balteata was at least 80% each time. The mortality at 24 ppm with Myzus persicae [1] was at least 80%.

For `CCS(=N)(=O)c1cc(OC(C)(C)C#N)cnc1-c1cn2ccc(C(F)(F)F)cc2n1` (racemic) [Compound P3, 2-[[5-(ethylsulfonimidoyl)-6-[7-(trifluoromethyl)imidazo[1,2-a]pyridin-2-yl]-3-pyridyl]oxy]-2-methyl-propanenitrile], the percent effect (mortality or growth inhibition) at 200 ppm in the series with Plutella xylostella [3] and in the series on Diabrotica balteata was at least 80% in each case. In addition, the mortality at 200 ppm in the series with Myzus persicae [2] was at least 80%. Further, the percent control (mortality, anti-feedant effect or growth inhibition) at 200 ppm with Spodoptera littoralis was at least 80%.

With `CCS(=N)(=O)c1cc(OC(C)(C)C#N)c(C)nc1-c1nc2cc(C(F)(F)F)cnc2n1C` (single isomer, unassigned) [Compound P5-B, 2-[[5-(ethylsulfonimidoyl)-2-methyl-6-[3-methyl-6-(trifluoromethyl)imidazo[4,5-b]pyridin-2-yl]-3-pyridyl]oxy]-2-methyl-propanenitrile], the percent effect (mortality or growth inhibition) at 200 ppm with Euschistus heros and with Plutella xylostella [4] was at least 80% in each case. Besides, the “Mortality (%)” value in the series on Myzus persicae [1] (Myzus persicae (systemic), concentration 24 ppm) is listed as 100%; in the series on Diabrotica balteata (concentration 3.125 ppm) it was 100%.

`CCS(=N)(=O)c1cc(OC(C)(C)C#N)cnc1-c1cn2cnc(SC(F)(F)F)cc2n1` (single isomer, unassigned) [Compound P7-A, 2-[[5-(ethylsulfonimidoyl)-6-[7-(trifluoromethylsulfanyl)imidazo[1,2-c]pyrimidin-2-yl]-3-pyridyl]oxy]-2-methyl-propanenitrile]: the mortality at 200 ppm with Bemisia tabaci and in the series on Myzus persicae [2] was at least 80% in each case. In the series with Bemisia tabaci (concentration 50 ppm), this compound showed a mortality at 50 ppm of 80%. The percent effect (mortality or growth inhibition) at 200 ppm in the series with Euschistus heros and in the series on Diabrotica balteata was at least 80% in each case. In addition, in the series on Myzus persicae [1], the mortality at 24 ppm is at least 80%. In addition, the percent control (mortality, anti-feedant effect or growth inhibition) at 200 ppm with Spodoptera littoralis is at least 80%.

Consider `CCn1c(C(F)(F)F)cc2nc(-c3ncc(C4(C#N)CC4)cc3S(=N)(=O)CC)n(C)c2c1=O` (single isomer, unassigned) [Compound P14-A, 1-[6-[5-ethyl-3-methyl-4-oxo-6-(trifluoromethyl)imidazo[4,5-c]pyridin-2-yl]-5-(ethylsulfonimidoyl)-3-pyridyl]cyclopropanecarbonitrile], for which the mortality at 200 ppm with Bemisia tabaci and with Myzus persicae [2] was at least 80% in each case. Moreover, the percent effect (mortality or growth inhibition) at 200 ppm in the series with Euschistus heros, with Plutella xylostella [4] and with Diabrotica balteata was at least 80% throughout. Besides, in the series on Myzus persicae [1], the mortality at 24 ppm was at least 80%. Besides, in the series with Diabrotica balteata (concentration 50 ppm), the “Mortality (%)” value was determined as 80%. Moreover, the percent control (mortality, anti-feedant effect or growth inhibition) at 200 ppm in the series on Spodoptera littoralis is at least 80%.
